tested on: sorbitol oxidase; experiment: Sorbitol oxidase activity determined by H2O2 produced, with various monosaccharides and derivatives as substrate; assay type: biochemical, Xanthomonas maltophilia TE3539; conditions: with respect to sorbitol

Km [µM] | Structure (SMILES)
600 | OC[C@@H](O)[C@@H](O)[C@H](O)[C@@H](O)CO [D-sorbitol]

tested on: sorbitol oxidase; experiment: as above; assay type: biochemical, Xanthomonas maltophilia TE3539; parameters: concentration or dose not given beside the values; conditions: substrate specificity; enzyme activity with respect to D-sorbitol set at 100
Experimental: First, the following reaction mixture is prepared.
The enzyme activity was determined in the case where various monosaccharides and derivatives thereof were used as a substrate. The value of enzyme activity with respect to D-sorbitol was set at 100.

Relative activity (%) | Structure (SMILES)
0.00 | OC[C@H]1O[C@H](O[C@H]2[C@H](O)[C@@H](O)C(O)O[C@@H]2CO)[C@H](O)[C@@H](O)[C@@H]1O (mixture of isomers) [Maltose]
0.00 | Cl.N[C@H]1C(O)O[C@H](CO)[C@@H](O)[C@@H]1O (stereo partly drawn) [D-glucosamine hydrochloride]
86.60 | OC[C@@H](O)[C@@H](O)[C@H](O)[C@H](O)CO [D-mannitol]
0.40 | O[C@H]1[C@H](O)[C@@H](O)[C@H](O)[C@@H](O)[C@H]1O [Inositol]
10.60 | O=C(CO)[C@@H](O)[C@H](O)[C@@H](O)CO [L-sorbose]

Second part, the molecule before the results:

Structure (SMILES) | Relative activity (%)
OC[C@@H](O)C(O)[C@H](O)CO [D-arabitol] | 23.20
O=C(CO)[C@@H](O)[C@H](O)[C@H](O)CO [D-fructose] | 2.88
O=C[C@H](O)[C@@H](O)[C@@H](O)[C@H](O)CO [D-galactose] | 0.42
O=C[C@H](O)[C@@H](O)[C@H](O)[C@H](O)CO [D-glucose] | 0.54
O=C[C@@H](O)[C@@H](O)[C@H](O)[C@H](O)CO [D-mannose] | 1.01
OC[C@@H](O)[C@@H](O)[C@H](O)[C@@H](O)CO [D-sorbitol] | 100.00
OC[C@@H](O)[C@H](O)[C@@H](O)CO [D-xylitol] | 89.90
OCC(O)CO [Glycerol] | 3.50

— patent publication US5741687A (Toyo Boseki Kaubshiki Kaisha, priority 1992, dated 1998)
